Assays:
[1] = target: T1, recombinant human ACC1 (rhACC1) (Homo sapiens, UniProt Q13085, DEL44-44); assay: recombinant hACC1 Transcreener ADP detection FP assay; type: biochemical; conditions: 50 μM ATP, 30 μM acetyl-CoA
T1 construct: recombinant baculovirus containing full length human ACC1 cDNA; made in house; host or cells: SF9 insect cells, recombinant baculovirus
Method: (§1) For example direct inhibition of ACC activity, for the compound of Formula (I) was determined using preparations of recombinant human ACC1 (rhACC1) and recombinant human ACC2 (rhACC2). Representative sequences of the recombinant human ACC1 and ACC2 that can be used in the assay are provided herein as SEQ ID NO. 1 and SEQ. ID NO. 2, respectively.
[1] Preparation of rhACC1. Two liters of SF9 cells, infected with recombinant baculovirus containing full length human ACC1 cDNA, were suspended in ice-cold lysis buffer (25 mM Tris, pH 7.5; 150 mM NaCl; 10% glycerol; 5 mM imidazole (EMD Bioscience; Gibbstown, N.J.); 2 mM TCEP (BioVectra; Charlottetown, Canada); Benzonase nuclease (10000 U/100 g cell paste; Novagen; Madison, Wis.); EDTA-free protease inhibitor cocktail (1 tab/50 mL; Roche Diagnostics; Mannheim, Germany). Cells were lysed by 3 cycles of freeze-thaw and centrifuged at 40,000×g for 40 minutes (4° C.). Supernatant was directly loaded onto a HisTrap FF crude column (GE Healthcare; Piscataway, N.J.) and eluted with an imidazole gradient up to 0.5 M over 20 column volumes (CV). ACC1-containing fractions were pooled and diluted 1:5 with 25 mM Tris, pH 7.5, 2 mM TCEP, 10% glycerol and direct loaded onto a CaptoQ (GE Healthcare) column and eluted with an NaCl gradient up to 1 M over 20 CV's. Phosphate groups were removed from purified ACC1 by incubation with lambda phosphatase (100 U/10 μM target protein; New England Biolabs; Beverly, Mass.) for 14 hours at 4° C.; okadaic acid was added (1 μM final concentration; Roche Diagnostics) to inhibit the phosphatase. Purified ACC1 was exchanged into 25 mM Tris, pH 7.5, 2 mM TCEP, 10% glycerol, 0.5 M NaCl by 6 hour dialysis at 4° C. Aliquots were prepared and frozen at −80° C.
[2] Measurement of rhACC1 inhibition. hACC1 was assayed in a Costar #3676 (Costar, Cambridge, Mass.) 384-well plate using the Transcreener ADP detection FP assay kit (Bellbrook Labs, Madison, Wis.) using the manufacturer's recommended conditions for a 50 μM ATP reaction. The final conditions for the assay were 50 mM HEPES, pH 7.2, 10 mM MgCl2, 7.5 mM tripotassium citrate, 2 mM DTT, 0.1 mg/mL BSA, 30 μM acetyl-CoA, 50 μM ATP, and 10 mM KHCO3 Typically, a 10 μl reaction was run for 120 min at 25° C., and 10 μl of Transcreener stop and detect buffer was added and the combination incubated at room temp for an additional 1 hour. The data was acquired on a Envision Fluorescence reader (Perkinelmer) using a 620 excitation Cy5 FP general dual mirror, 620 excitation Cy5 FP filter, 688 emission (S) and a 688 (P) emission filter.
(§2) The results using the recombinant hACC1 and recombinant hACC2 Transcreener assays described above are summarized in the table below for the Compounds of Formula (I) exemplified in the Examples above.

[2] = target: T2, recombinant human ACC2 (rhACC2) (Homo sapiens, UniProt O00763, V2141I); assay: recombinant hACC2 Transcreener ADP detection FP assay; type: biochemical; conditions: 50 μM ATP, 30 μM acetyl-CoA
T2 construct: a full length Cytomax clone of ACC2 was purchased from Cambridge Bioscience Limited; made in house; host or cells: CHO cells, tetracycline-induced (PcDNA5 FRT TO-TOPO)
T2 sequence (O00763 whole entry V2141I): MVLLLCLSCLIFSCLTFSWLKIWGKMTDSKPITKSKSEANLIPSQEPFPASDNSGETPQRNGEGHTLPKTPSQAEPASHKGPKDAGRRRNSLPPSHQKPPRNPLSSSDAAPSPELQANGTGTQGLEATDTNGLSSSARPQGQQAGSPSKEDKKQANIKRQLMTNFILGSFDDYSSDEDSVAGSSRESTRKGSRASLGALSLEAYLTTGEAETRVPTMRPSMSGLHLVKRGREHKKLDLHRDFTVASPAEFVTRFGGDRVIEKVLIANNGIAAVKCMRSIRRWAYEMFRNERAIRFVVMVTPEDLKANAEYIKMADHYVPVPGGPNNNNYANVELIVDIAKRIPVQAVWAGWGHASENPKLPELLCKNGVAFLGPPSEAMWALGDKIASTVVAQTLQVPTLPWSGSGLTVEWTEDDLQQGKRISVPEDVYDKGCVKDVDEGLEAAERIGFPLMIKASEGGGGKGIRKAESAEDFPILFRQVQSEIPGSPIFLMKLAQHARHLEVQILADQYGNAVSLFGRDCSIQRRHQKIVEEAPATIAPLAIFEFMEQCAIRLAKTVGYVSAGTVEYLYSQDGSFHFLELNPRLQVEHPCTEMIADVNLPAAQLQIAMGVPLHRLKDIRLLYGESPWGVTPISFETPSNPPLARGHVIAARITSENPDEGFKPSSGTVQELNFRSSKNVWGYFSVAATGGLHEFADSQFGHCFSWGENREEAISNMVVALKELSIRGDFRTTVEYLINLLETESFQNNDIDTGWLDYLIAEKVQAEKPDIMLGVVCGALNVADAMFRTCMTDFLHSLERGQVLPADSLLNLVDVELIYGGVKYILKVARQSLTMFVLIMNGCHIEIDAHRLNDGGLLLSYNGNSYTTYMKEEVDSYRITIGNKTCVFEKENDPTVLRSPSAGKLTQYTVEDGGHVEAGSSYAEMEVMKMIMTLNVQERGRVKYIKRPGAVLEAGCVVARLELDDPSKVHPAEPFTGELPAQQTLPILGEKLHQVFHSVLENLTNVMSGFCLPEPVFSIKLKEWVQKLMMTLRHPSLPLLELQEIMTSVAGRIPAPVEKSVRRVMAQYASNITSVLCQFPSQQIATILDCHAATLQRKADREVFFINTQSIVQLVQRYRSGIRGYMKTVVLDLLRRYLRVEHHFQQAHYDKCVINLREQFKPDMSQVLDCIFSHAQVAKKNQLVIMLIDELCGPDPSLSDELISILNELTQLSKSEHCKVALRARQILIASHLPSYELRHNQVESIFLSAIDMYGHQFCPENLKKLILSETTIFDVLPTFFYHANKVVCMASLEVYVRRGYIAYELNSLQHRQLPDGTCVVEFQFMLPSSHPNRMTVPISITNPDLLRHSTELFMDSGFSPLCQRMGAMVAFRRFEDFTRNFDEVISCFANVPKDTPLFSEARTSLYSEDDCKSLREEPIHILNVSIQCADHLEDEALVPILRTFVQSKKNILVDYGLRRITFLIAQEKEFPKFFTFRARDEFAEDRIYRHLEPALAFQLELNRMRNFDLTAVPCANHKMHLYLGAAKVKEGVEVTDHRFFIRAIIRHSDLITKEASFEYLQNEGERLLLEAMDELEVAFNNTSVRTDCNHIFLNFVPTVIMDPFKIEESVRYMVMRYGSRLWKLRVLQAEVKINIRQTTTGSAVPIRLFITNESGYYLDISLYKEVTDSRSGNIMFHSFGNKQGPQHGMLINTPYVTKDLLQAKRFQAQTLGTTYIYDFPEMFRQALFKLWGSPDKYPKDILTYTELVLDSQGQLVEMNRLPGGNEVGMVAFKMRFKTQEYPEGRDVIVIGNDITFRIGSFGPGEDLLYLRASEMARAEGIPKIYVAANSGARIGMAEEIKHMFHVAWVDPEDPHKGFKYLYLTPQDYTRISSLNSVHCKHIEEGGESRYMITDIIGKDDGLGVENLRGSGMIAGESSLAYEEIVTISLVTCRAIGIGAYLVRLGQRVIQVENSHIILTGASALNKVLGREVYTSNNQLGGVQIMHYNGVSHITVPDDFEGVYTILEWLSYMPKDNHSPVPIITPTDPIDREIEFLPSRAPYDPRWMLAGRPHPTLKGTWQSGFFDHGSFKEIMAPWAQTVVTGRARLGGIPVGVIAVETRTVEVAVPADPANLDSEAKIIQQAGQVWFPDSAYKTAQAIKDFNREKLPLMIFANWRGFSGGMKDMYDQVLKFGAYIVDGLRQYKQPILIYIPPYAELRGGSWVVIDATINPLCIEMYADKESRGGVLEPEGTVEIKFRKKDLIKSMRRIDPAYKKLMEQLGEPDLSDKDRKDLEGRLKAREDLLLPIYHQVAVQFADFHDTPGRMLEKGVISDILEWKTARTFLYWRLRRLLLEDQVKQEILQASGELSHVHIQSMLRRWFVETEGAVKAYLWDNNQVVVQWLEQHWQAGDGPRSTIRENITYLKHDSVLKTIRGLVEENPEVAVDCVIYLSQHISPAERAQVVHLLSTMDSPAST
Method: as §1
[3] Preparation of rhACC2. Human ACC2 inhibition was measured using purified recombinant human ACC2 (hrACC2). Briefly, a full length Cytomax clone of ACC2 was purchased from Cambridge Bioscience Limited and was sequenced and subcloned into PcDNA5 FRT TO-TOPO (Invitrogen, Carlsbad, Calif.). The ACC2 was expressed in CHO cells by tetracycline induction and harvested in 5 liters of DMEM/F12 with glutamine, biotin, hygromycin and blasticidin with 1 μg/mL tetracycline (Invitrogen, Carlsbad, Calif.). The conditioned medium containing ACC2 was then applied to a Softlink Soft Release Avidin column (Promega, Madison, Wis.) and eluted with 5 mM biotin. 4 mgs of ACC2 were eluted at a concentration of 0.05 mg/mL (determined by A280) with an estimated purity of 95% ([…]). The purified ACC2 was dialyzed in 50 mM Tris, 200 mM NaCl, 4 mM DTT, 2 mM EDTA, and 5% glycerol. The pooled protein was frozen and stored at −80° C., with no loss of activity upon thawing. For measurement of ACC2 activity and assessment of ACC2 inhibition, test compounds were dissolved in DMSO and added to the rhACC2 enzyme as a 5× stock with a final DMSO concentration of 1%.
[4] Measurement of human ACC2 inhibition. hACC2 was assayed in a Costar #3676 (Costar, Cambridge, Mass.) 384-well plate using the Transcreener ADP detection FP assay kit (Bellbrook Labs, Madison, Wis.) using the manufacturer's recommended conditions for a 50 uM ATP reaction. The final conditions for the assay were 50 mM HEPES, pH 7.2, 5 mM MgCl2, 5 mM tripotassium citrate, 2 mM DTT, 0.1 mg/mL BSA, 30 μM acetyl-CoA, 50 μM ATP, and 8 mM KHCO3. Typically, a 10 μl reaction was run for 50 min at 25° C., and 10 μl of Transcreener stop and detect buffer was added and the combination incubated at room temp for an additional 1 hour. The data was acquired on an Envision Fluorescence reader (Perkinelmer) using a 620 excitation Cy5 FP general dual mirror, 620 excitation Cy5 FP filter, 688 emission (S) and a 688 (P) emission filter.
as §2

Structure (SMILES) | IC50 [1] [nM] | IC50 [2] [nM]
CNc1ccc2ccc(C(=O)N3CCC4(CC3)CC(=O)c3nn(C(C)(C)C)cc3C4)cc2n1 [Example 40] | 2.2 | 1.3
CC(C)n1ncc2c1C(=O)CC1(CCN(C(=O)c3cnc4[nH]nc(C(N)=O)c4c3)CC1)C2 [Example 18, 5-[(1-isopropyl-7-oxo-1,4,6,7-tetrahydro-1′H-spiro[indazole-5,4′-piperidin]-1′-yl)carbonyl]-1H-pyrazolo[3,4-b]pyridine-3-carboxamide] | 33 | 22
CC(C)(C)n1cc2c(n1)C(=O)CC1(CCN(C(=O)c3cnc4c(Cl)c[nH]c4c3)CC1)C2 [Example 42] | 6.6 | 1.8
CC(C)n1ncc2c1C(=O)CC1(CCN(C(=O)c3ccc4c(C(N)=O)c[nH]c4c3)CC1)C2 [Example 1, 6-[(1-isopropyl-7-oxo-1,4,6,7-tetrahydro-1′H-spiro[indazole-5,4′-piperidin]-1′-yl)carbonyl]-1H-indole-3-carboxamide] | 6 | 1.4
CC(C)n1ncc2c1C(=O)CC1(CCN(C(=O)c3ccc4[nH]c(N)nc4c3)CC1)C2 [Example 8] | 17 | 3.3
CC(C)n1ncc2c1C(=O)CC1(CCN(C(=O)c3cnc4ccc(OCC(N)=O)cc4c3)CC1)C2 [Example 24, 2-({3-[(1-isopropyl-7-oxo-1,4,6,7-tetrahydro-1′H-spiro[indazole-5,4′-piperidin]-1′-yl)carbonyl]quinolin-6-yl}oxy)acetamide] | 43 | 20
CC(C)(C)n1cc2c(n1)C(=O)CC1(CCN(C(=O)c3ccc4[nH]cc(C(N)=O)c4c3)CC1)C2 [Example 33] | 3.1 | 1
CCNC(=O)c1n[nH]c2ccc(C(=O)N3CCC4(CC3)CC(=O)c3nn(C(C)(C)C)cc3C4)cc12 [Example 36] | 4 | 1.7
CNC(=O)c1n[nH]c2ccc(C(=O)N3CCC4(CC3)CC(=O)c3nn(C(C)(C)C)cc3C4)cc12 [Example 37] | 2.9 | 1.3
CC(C)n1ncc2c1C(=O)CC1(CCN(C(=O)c3ccc4c(C(N)=O)n[nH]c4c3)CC1)C2 [Example 4] | 6.5 | 2.9
CC(C)n1ncc2c1C(=O)CC1(CCN(C(=O)c3cnc4c(Cl)c[nH]c4c3)CC1)C2 [Example 16] | 6.7 | 3.1
CC(C)n1ncc2c1C(=O)CC1(CCN(C(=O)c3cnc4[nH]c(C(N)=O)cc4c3)CC1)C2 [Example 19, 5-[(1-isopropyl-7-oxo-1,4,6,7-tetrahydro-1′H-spiro[indazole-5,4′-piperidin]-1′-yl)carbonyl]-1H-pyrrolo[2,3-b]pyridine-2-carboxamide] | 63 | 15
CC(C)(C)n1cc2c(n1)C(=O)CC1(CCN(C(=O)c3ccc4[nH]c(C(N)=O)cc4c3)CC1)C2 [Example 32] | 8.1 | 1.5
CC(C)(C)n1cc2c(n1)C(=O)CC1(CCN(C(=O)c3ccc4c(C#N)n[nH]c4c3)CC1)C2 [Example 41] | 18 | 3.7
CC(C)(C)n1cc2c(n1)C(=O)CC1(CCN(C(=O)c3cnc4ccc(C(N)=O)cc4c3)CC1)C2 [Example 44] | 31 | 5.4
CNc1ccc2ccc(C(=O)N3CCC4(CC3)CC(=O)c3c(cnn3C(C)C)C4)cc2n1 [Example 13] | 2.4 | 1.5
CC(C)(C)n1cc2c(n1)C(=O)CC1(CCN(C(=O)c3ccc4cc(C(N)=O)[nH]c4c3)CC1)C2 [Example 34] | 8.1 | 2.8
CC(C)(C)n1cc2c(n1)C(=O)CC1(CCN(C(=O)c3ccc4[nH]nc(C#N)c4c3)CC1)C2 [Example 43] | 6.4 | 2.8
CC(C)n1ncc2c1C(=O)CC1(CCN(C(=O)c3ccc4nc(N)ccc4c3)CC1)C2 [Example 15] | 14 | 2.6

Source: patent publication US8802688B2, “Substituted acetyl-coa carboxylase inhibitors” (Pfizer Inc., priority 2011, dated 2014)
